Reference: US20150031622A1, “RHOGEF12 IS A THERAPEUTIC TARGET FOR THE TREATMENT OF HEART FAILURE” (MAX-PLANCK-GESELLSCHAFT ZUR FÖRDERUNG DER WISSENSCHAFTEN …, priority 2012, published 2015)
Bridges are numbered along the chain shown (N, C = ends). Where no end group is shown, it is not given here.

Test system: neonatal rat ventricular myocytes (NRVM)
Test: qRT-PCR of hypertrophy-specific genes (ANP, β-MHC) in NRVM
Format: cell-based
Conditions: NRVM control cells
Procedure: Neonatal rat ventricular myocytes (NRVM) were isolated from 1-2 days old rat neonates using a kit from Worthington Biochemical Corporation (Lakewood, N.J., USA). After digestion, cells were pre-plated for 1 h to remove nonmyocytes, plated on cell culture dishes pre-coated with 1% gelatin (Sigma-Aldrich) and then cultured in Dulbecco's modified Eagle's medium (DMEM) with 10% fetal bovine serum. The following day, cells were cultured in serum-free DMEM medium containing 100 μM 5-bromo 2′-deoxy-uridine (BrdU; Sigma-Aldrich). NRVM were transfected with siRNAs (Qiagen, Chatsworth, Calif., USA or Sigma-Aldrich) using Lipofectamine RNAiMAX (Invitrogen, San Diego, Calif., USA) 3 h and 20 h after plating according to the manufacturer's instructions. […]
RNA was extracted from left ventricles with the RNA fibrosis tissue kit (Qiagen) and from NRVM or adult mouse cardiomyocytes with the RNeasy Mini kit (Qiagen) according to the manufacture's protocol. […] Reverse transcriptase (RT) reaction was performed using the QuantiTect Reverse Transcription kit (Qiagen). Quantitative RT-PCR was performed using the LightCycler 480 Probe Master or LightCycler 480 SYBR Green Master (Roche). […]
Primers for the analysis of RhoGEF expression were used as described previously^40. Data are in all cases presented after normalization to GAPDH, in some cases the relative change compared to basal conditions was calculated.

Substance: endothelin-1 (CSCSSLMDKECVYFCHLDIIW; disulfide 1-15, 3-11; ends not checked; UniProt P05305 53-73, looked up) [ET-1, hypertrophic stimulus, GPCR agonist, purchased from Sigma-Aldrich]
- expression of hypertrophy-specific genes (ANP, β-MHC) after stimulus: increased gene expression
